Results published in article PMC12670405, “Second-Generation AURKA-Targeting PROTACs: Structural Optimization toward in Vivo Degradation in Neuroblastoma” (Journal of Medicinal Chemistry, 2025).

What was measured:
Assay in all cases: KINOMEscan scanMAX
Type in all cases: binding
Details in all cases: read-out: Percent Control
[1] = target: T1, ASK2 (Homo sapiens, UniProt O95382)
T1 construct: purchased Eurofins Discovery (DiscoverX KINOMEscan scanMAX)
Description: (§1) The kinome-wide binding assay was performed by Eurofins Discovery using the scanMAX screening platform. More information can be found on the Eurofins Discovery Web site.

[2] = target: T2, BTK (Homo sapiens, UniProt Q06187)
T2 construct: purchased Eurofins Discovery (DiscoverX KINOMEscan scanMAX)
Description: as §1

[3] = target: T3, MLK3 (Homo sapiens, UniProt Q16584)
T3 construct: purchased Eurofins Discovery (DiscoverX KINOMEscan scanMAX)
Description: as §1

[4] = target: T4, TTK (Homo sapiens, UniProt P33981)
T4 construct: purchased Eurofins Discovery (DiscoverX KINOMEscan scanMAX)
Description: as §1

[5] = target: T5, MAP4K4 (Homo sapiens, UniProt O95819)
T5 construct: purchased Eurofins Discovery (DiscoverX KINOMEscan scanMAX)
Description: as §1

[6] = target: T6, KIT(D816V) (Homo sapiens, UniProt P10721, D816V)
T6 construct: purchased Eurofins Discovery (DiscoverX KINOMEscan scanMAX)
Description: as §1

[7] = target: T7, ERK1 (Homo sapiens, UniProt P27361)
T7 construct: purchased Eurofins Discovery (DiscoverX KINOMEscan scanMAX)
Description: as §1

[8] = target: T8, PIK3C2B (Homo sapiens, UniProt O00750)
T8 construct: purchased Eurofins Discovery (DiscoverX KINOMEscan scanMAX)
Description: as §1

[9] = target: T9, NLK (Homo sapiens, UniProt Q9UBE8)
T9 construct: purchased Eurofins Discovery (DiscoverX KINOMEscan scanMAX)
Description: as §1

[10] = target: T10, AKT3 (Homo sapiens, UniProt Q9Y243)
T10 construct: purchased Eurofins Discovery (DiscoverX KINOMEscan scanMAX)
Description: as §1

[11] = target: T11, NEK11 (Homo sapiens, UniProt Q8NG66)
T11 construct: purchased Eurofins Discovery (DiscoverX KINOMEscan scanMAX)
Description: as §1

[12] = target: T12, PRKD2 (Homo sapiens, UniProt Q9BZL6)
T12 construct: purchased Eurofins Discovery (DiscoverX KINOMEscan scanMAX)
Description: as §1

[13] = target: T13, TNK1 (Homo sapiens, UniProt Q13470)
T13 construct: purchased Eurofins Discovery (DiscoverX KINOMEscan scanMAX)
Description: as §1

[14] = target: T14, CDC2L1 (Homo sapiens, UniProt P21127)
T14 construct: purchased Eurofins Discovery (DiscoverX KINOMEscan scanMAX)
Description: as §1

[15] = target: T15, PKN2 (Homo sapiens, UniProt Q16513)
T15 construct: purchased Eurofins Discovery (DiscoverX KINOMEscan scanMAX)
Description: as §1

[16] = target: T16, TRKB (Homo sapiens, UniProt Q16620)
T16 construct: purchased Eurofins Discovery (DiscoverX KINOMEscan scanMAX)
Description: as §1

[17] = target: T17, p38-gamma (Homo sapiens, UniProt P53778)
T17 construct: purchased Eurofins Discovery (DiscoverX KINOMEscan scanMAX)
Description: as §1

[18] = target: T18, LRRK2(G2019S) (Homo sapiens, UniProt Q5S007, G2019S)
T18 construct: purchased Eurofins Discovery (DiscoverX KINOMEscan scanMAX)
Description: as §1

[19] = target: T19, FLT3-autoinhibited (Homo sapiens, UniProt P36888)
T19 construct: purchased Eurofins Discovery (DiscoverX KINOMEscan scanMAX)
Description: as §1

[20] = target: T20, TEC (Homo sapiens, UniProt P42680)
T20 construct: purchased Eurofins Discovery (DiscoverX KINOMEscan scanMAX)
Description: as §1

[21] = target: T21, RET(V804L) (Homo sapiens, UniProt P07949, V804L)
T21 construct: purchased Eurofins Discovery (DiscoverX KINOMEscan scanMAX)
Description: as §1

[22] = target: T22, SIK2 (Homo sapiens, UniProt Q9H0K1)
T22 construct: purchased Eurofins Discovery (DiscoverX KINOMEscan scanMAX)
Description: as §1

[23] = target: T23, PRKR (Homo sapiens, UniProt P19525)
T23 construct: purchased Eurofins Discovery (DiscoverX KINOMEscan scanMAX)
Description: as §1

[24] = target: T24, BRSK1 (Homo sapiens, UniProt Q8TDC3)
T24 construct: purchased Eurofins Discovery (DiscoverX KINOMEscan scanMAX)
Description: as §1

[25] = target: T25, CDKL1 (Homo sapiens, UniProt Q00532)
T25 construct: purchased Eurofins Discovery (DiscoverX KINOMEscan scanMAX)
Description: as §1

[26] = target: T26, CDK4 (Homo sapiens, UniProt P11802)
T26 construct: purchased Eurofins Discovery (DiscoverX KINOMEscan scanMAX)
Description: as §1

[27] = target: T27, BLK (Homo sapiens, UniProt P51451)
T27 construct: purchased Eurofins Discovery (DiscoverX KINOMEscan scanMAX)
Description: as §1

[28] = target: T28, TAK1 (Homo sapiens, UniProt O43318)
T28 construct: purchased Eurofins Discovery (DiscoverX KINOMEscan scanMAX)
Description: as §1

[29] = target: T29, CHEK1 (Homo sapiens, UniProt O14757)
T29 construct: purchased Eurofins Discovery (DiscoverX KINOMEscan scanMAX)
Description: as §1

[30] = target: T30, MAST1 (Homo sapiens, UniProt Q9Y2H9)
T30 construct: purchased Eurofins Discovery (DiscoverX KINOMEscan scanMAX)
Description: as §1

[31] = target: T31, TRKC (Homo sapiens, UniProt Q16288)
T31 construct: purchased Eurofins Discovery (DiscoverX KINOMEscan scanMAX)
Description: as §1

[32] = target: T32, MYLK (Homo sapiens, UniProt Q15746)
T32 construct: purchased Eurofins Discovery (DiscoverX KINOMEscan scanMAX)
Description: as §1

[33] = target: T33, MST4 (Homo sapiens, UniProt Q9P289)
T33 construct: purchased Eurofins Discovery (DiscoverX KINOMEscan scanMAX)
Description: as §1

[34] = target: T34, EPHA4 (Homo sapiens, UniProt P54764)
T34 construct: purchased Eurofins Discovery (DiscoverX KINOMEscan scanMAX)
Description: as §1

[35] = target: T35, PIK3CB (Homo sapiens, UniProt P42338)
T35 construct: purchased Eurofins Discovery (DiscoverX KINOMEscan scanMAX)
Description: as §1

T35 sequence (P42338 whole entry): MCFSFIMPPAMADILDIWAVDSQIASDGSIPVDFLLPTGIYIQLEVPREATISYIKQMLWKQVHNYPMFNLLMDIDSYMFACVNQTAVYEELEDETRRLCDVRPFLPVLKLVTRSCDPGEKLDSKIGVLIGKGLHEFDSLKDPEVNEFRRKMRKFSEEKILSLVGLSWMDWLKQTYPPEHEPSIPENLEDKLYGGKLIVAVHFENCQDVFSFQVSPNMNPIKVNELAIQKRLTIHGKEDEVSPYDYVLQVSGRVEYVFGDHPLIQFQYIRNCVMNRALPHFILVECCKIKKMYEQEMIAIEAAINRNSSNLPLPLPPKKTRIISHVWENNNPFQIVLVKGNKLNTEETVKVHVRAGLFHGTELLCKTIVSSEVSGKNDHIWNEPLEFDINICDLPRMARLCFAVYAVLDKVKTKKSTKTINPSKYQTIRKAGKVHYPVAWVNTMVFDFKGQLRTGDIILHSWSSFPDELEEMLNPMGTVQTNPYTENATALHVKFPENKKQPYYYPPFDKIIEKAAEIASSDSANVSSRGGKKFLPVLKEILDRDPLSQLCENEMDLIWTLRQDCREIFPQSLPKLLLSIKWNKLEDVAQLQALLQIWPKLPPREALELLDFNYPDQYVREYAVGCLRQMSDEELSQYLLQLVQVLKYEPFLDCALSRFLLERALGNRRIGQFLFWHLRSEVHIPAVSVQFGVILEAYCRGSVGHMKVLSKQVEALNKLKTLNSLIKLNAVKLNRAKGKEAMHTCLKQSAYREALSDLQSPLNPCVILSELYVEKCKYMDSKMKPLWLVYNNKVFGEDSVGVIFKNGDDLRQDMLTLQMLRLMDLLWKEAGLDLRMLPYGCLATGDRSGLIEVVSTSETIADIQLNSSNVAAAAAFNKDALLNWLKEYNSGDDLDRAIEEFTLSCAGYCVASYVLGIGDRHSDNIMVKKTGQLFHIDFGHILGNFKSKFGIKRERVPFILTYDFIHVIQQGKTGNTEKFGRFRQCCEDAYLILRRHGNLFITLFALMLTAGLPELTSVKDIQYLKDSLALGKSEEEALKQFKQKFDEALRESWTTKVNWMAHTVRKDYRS
T34 sequence (P54764 20-986): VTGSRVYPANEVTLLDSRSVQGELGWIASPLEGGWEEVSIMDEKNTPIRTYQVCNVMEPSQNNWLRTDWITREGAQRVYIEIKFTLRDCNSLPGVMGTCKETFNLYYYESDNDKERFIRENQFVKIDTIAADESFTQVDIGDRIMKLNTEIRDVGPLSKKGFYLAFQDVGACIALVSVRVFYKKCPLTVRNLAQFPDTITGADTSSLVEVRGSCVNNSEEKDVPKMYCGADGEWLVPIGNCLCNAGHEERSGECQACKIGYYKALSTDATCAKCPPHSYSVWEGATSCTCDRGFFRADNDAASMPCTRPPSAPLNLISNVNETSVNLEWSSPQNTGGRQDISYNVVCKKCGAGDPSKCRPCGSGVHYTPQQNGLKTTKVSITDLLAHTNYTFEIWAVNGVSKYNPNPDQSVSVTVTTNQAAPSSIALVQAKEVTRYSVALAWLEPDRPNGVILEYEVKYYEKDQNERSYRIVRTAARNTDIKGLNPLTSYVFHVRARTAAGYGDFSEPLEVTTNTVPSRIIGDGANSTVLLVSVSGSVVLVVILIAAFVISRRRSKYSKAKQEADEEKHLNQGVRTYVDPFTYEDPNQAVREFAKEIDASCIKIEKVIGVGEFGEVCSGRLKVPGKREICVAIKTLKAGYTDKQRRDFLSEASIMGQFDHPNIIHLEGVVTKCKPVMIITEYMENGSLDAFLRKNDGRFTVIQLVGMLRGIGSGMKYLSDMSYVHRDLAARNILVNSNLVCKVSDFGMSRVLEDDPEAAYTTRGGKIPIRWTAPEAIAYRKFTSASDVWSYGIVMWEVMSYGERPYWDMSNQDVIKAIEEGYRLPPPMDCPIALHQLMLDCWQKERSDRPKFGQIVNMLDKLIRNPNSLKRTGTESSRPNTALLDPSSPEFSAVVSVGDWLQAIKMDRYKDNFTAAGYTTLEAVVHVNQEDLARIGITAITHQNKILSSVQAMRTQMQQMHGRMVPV
T25 sequence (Q00532 whole entry): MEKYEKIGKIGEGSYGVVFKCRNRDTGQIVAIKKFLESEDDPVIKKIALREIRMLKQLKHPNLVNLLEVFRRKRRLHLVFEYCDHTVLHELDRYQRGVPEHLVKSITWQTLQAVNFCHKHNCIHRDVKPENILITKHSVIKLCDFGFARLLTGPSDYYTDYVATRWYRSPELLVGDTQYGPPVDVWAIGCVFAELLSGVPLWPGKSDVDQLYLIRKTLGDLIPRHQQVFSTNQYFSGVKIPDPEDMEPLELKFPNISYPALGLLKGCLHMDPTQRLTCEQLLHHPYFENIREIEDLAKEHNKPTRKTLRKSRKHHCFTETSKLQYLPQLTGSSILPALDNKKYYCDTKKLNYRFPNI
T8 sequence (O00750 whole entry): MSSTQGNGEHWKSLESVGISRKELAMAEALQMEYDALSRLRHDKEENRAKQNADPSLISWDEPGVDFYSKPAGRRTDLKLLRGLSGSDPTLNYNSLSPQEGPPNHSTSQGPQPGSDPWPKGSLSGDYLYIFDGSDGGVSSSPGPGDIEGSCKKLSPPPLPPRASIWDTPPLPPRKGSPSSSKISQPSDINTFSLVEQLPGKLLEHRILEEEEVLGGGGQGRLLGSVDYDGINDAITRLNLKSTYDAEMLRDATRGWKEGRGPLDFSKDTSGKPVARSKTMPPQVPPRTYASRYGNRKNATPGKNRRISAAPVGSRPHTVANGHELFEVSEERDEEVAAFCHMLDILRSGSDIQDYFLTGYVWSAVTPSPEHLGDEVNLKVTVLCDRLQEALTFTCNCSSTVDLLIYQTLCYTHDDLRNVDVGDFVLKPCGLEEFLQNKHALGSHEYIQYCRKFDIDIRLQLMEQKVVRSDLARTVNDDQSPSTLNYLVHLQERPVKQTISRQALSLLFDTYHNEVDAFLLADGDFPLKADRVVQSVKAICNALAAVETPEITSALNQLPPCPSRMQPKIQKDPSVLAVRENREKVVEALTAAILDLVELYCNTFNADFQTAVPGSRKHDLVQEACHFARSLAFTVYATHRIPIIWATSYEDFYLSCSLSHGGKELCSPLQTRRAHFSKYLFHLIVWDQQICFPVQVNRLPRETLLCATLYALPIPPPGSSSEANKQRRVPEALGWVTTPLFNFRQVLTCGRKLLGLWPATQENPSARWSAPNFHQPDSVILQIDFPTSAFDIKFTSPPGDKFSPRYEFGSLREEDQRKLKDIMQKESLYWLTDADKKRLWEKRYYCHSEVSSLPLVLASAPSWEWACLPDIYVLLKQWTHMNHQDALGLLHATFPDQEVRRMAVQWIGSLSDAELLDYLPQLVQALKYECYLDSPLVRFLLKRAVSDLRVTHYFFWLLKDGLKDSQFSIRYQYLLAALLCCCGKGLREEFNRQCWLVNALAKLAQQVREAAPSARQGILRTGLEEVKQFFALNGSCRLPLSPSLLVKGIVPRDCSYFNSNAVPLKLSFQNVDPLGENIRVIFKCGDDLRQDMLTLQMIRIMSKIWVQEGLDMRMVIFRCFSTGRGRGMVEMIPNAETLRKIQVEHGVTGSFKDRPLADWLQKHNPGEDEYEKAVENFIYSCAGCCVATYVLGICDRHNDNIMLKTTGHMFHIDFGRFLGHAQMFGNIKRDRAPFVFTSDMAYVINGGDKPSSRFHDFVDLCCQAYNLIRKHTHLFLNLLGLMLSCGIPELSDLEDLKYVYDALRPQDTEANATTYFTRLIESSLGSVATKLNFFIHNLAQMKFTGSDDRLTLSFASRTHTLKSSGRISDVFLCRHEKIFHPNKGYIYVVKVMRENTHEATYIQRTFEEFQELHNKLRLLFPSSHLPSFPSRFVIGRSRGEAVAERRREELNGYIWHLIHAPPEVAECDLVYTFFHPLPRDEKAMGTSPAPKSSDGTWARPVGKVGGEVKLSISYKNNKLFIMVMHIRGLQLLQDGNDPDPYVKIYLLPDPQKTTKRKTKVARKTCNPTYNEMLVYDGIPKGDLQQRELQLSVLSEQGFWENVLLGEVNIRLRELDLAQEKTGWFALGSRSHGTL
T28 sequence (O43318 whole entry): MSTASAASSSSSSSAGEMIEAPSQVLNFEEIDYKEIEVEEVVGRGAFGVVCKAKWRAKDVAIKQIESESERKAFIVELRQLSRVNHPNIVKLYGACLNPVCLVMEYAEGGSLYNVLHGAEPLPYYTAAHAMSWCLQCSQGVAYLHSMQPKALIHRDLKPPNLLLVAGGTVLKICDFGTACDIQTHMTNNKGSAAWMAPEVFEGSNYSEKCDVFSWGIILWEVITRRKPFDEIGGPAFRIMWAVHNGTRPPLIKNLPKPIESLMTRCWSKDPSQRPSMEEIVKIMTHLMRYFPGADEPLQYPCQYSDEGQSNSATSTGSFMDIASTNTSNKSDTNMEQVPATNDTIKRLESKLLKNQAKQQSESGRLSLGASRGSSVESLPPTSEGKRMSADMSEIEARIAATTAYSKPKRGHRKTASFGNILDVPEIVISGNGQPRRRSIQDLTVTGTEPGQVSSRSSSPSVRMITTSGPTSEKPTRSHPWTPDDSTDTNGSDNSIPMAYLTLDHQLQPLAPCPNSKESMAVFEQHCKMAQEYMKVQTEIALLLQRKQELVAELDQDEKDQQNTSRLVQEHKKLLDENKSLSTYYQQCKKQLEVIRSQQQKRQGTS
T19 sequence (P36888 564-993 limits assumed): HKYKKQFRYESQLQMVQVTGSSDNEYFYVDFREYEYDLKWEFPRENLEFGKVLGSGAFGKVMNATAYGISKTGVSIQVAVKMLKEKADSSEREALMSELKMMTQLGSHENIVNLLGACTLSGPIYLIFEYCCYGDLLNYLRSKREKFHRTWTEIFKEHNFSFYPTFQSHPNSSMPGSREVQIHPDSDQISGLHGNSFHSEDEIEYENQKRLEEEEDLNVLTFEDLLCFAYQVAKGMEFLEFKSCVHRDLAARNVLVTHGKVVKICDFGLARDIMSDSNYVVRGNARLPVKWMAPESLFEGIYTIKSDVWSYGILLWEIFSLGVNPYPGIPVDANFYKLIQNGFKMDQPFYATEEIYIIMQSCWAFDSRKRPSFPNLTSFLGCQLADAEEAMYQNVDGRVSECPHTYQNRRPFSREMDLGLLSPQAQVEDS

Structure (SMILES): Cc1cc(Nc2ccc(F)c(CC3(C(=O)N4CCC(F)(CN5CCN(c6ccc(N7CCC(=O)NC7=O)cn6)CC5)CC4)CCN(Cc4cccc(Cl)c4F)CC3)n2)n[nH]1 [SK5527]
- remaining binding at 0.1 µM ([1]; 100 nM): 62%
- remaining binding at 1 µM ([1]; 1000 nM): 56%
- remaining binding at 0.1 µM ([2]; 100 nM): 88%
- remaining binding at 1 µM ([2]; 1000 nM): 80%
- remaining binding at 0.1 µM ([3]; 100 nM): 85%
- remaining binding at 1 µM ([3]; 1000 nM): 100%
- remaining binding at 0.1 µM ([4]; 100 nM): 100%
- remaining binding at 1 µM ([4]; 1000 nM): 100%
- remaining binding at 0.1 µM ([5]; 100 nM): 86%
- remaining binding at 1 µM ([5]; 1000 nM): 73%
- remaining binding at 0.1 µM ([6]; 100 nM): 93%
- remaining binding at 1 µM ([6]; 1000 nM): 97%
- remaining binding at 0.1 µM ([7]; 100 nM): 94%
- remaining binding at 1 µM ([7]; 1000 nM): 94%
- remaining binding at 0.1 µM ([8]; 100 nM): 99%
- remaining binding at 1 µM ([8]; 1000 nM): 91%
- remaining binding at 0.1 µM ([9]; 100 nM): 94%
- remaining binding at 1 µM ([9]; 1000 nM): 82%
- remaining binding at 0.1 µM ([10]; 100 nM): 86%
- remaining binding at 1 µM ([10]; 1000 nM): 91%
- remaining binding at 0.1 µM ([11]; 100 nM): 100%
- remaining binding at 1 µM ([11]; 1000 nM): 100%
- remaining binding at 0.1 µM ([12]; 100 nM): 78%
- remaining binding at 1 µM ([12]; 1000 nM): 90%
- remaining binding at 0.1 µM ([13]; 100 nM): 66%
- remaining binding at 1 µM ([13]; 1000 nM): 44%
- remaining binding at 0.1 µM ([14]; 100 nM): 98%
- remaining binding at 1 µM ([14]; 1000 nM): 95%
- remaining binding at 0.1 µM ([15]; 100 nM): 81%
- remaining binding at 1 µM ([15]; 1000 nM): 81%
- remaining binding at 0.1 µM ([16]; 100 nM): 95%
- remaining binding at 1 µM ([16]; 1000 nM): 47%
- remaining binding at 0.1 µM ([17]; 100 nM): 97%
- remaining binding at 1 µM ([17]; 1000 nM): 87%
- remaining binding at 0.1 µM ([18]; 100 nM): 73%
- remaining binding at 1 µM ([18]; 1000 nM): 67%
- remaining binding at 0.1 µM ([19]; 100 nM): 96%
- remaining binding at 1 µM ([19]; 1000 nM): 68%
- remaining binding at 0.1 µM ([20]; 100 nM): 91%
- remaining binding at 1 µM ([20]; 1000 nM): 69%
- remaining binding at 0.1 µM ([21]; 100 nM): 92%
- remaining binding at 1 µM ([21]; 1000 nM): 38%
- remaining binding at 0.1 µM ([22]; 100 nM): 100%
- remaining binding at 1 µM ([22]; 1000 nM): 93%
- remaining binding at 0.1 µM ([23]; 100 nM): 100%
- remaining binding at 1 µM ([23]; 1000 nM): 91%
- remaining binding at 0.1 µM ([24]; 100 nM): 100%
- remaining binding at 1 µM ([24]; 1000 nM): 98%
- remaining binding at 0.1 µM ([25]; 100 nM): 99%
- remaining binding at 1 µM ([25]; 1000 nM): 94%
- remaining binding at 0.1 µM ([26]; 100 nM): 72%
- remaining binding at 1 µM ([26]; 1000 nM): 90%
- remaining binding at 0.1 µM ([27]; 100 nM): 97%
- remaining binding at 1 µM ([27]; 1000 nM): 45%
- remaining binding at 0.1 µM ([28]; 100 nM): 74%
- remaining binding at 1 µM ([28]; 1000 nM): 100%
- remaining binding at 0.1 µM ([29]; 100 nM): 100%
- remaining binding at 1 µM ([29]; 1000 nM): 100%
- remaining binding at 0.1 µM ([30]; 100 nM): 72%
- remaining binding at 1 µM ([30]; 1000 nM): 100%
- remaining binding at 0.1 µM ([31]; 100 nM): 97%
- remaining binding at 1 µM ([31]; 1000 nM): 76%
- remaining binding at 0.1 µM ([32]; 100 nM): 76%
- remaining binding at 1 µM ([32]; 1000 nM): 47%
- remaining binding at 0.1 µM ([33]; 100 nM): 95%
- remaining binding at 1 µM ([33]; 1000 nM): 86%
- remaining binding at 0.1 µM ([34]; 100 nM): 91%
- remaining binding at 1 µM ([34]; 1000 nM): 100%
- remaining binding at 0.1 µM ([35]; 100 nM): 78%
- remaining binding at 1 µM ([35]; 1000 nM): 95%
